Measurements from PubChem BioAssay AID2060619 (Molecular Pharmacology Branch, DTP, NCI, 2025).

Tested on: 323965-272-R-J2-PDC complex spheroid viability
Experiment: Anticancer human tumor 323965-272-R-J2-PDC patient-derived pancreatic carcinoma cell line growth inhibition [CLK]
Conditions: for IC50: curve of first compound; for viability, T/C: stronger effect = lower value
Description: A high-throughput screen of multi-cell type tumor spheroids was designed to identify active combinations of […] and targeted small molecules. Complex spheroids include a stromal component modeled by human endothelial cells (HUVEC) and fibroblasts modeled by human mesenchymal stem cells (MSCs). The concentration ranges selected for each drug and investigational agent were based upon clinically achievable concentrations if the clinical Cmax of the agent was known.
Compounds. The drugs and investigational agents: cirtuvivint (SM08502; NSC835563), CC-671 (NSC850746), vemurafenib (NSC761431), tapotoclax (NSC804041), sotorasib (NSC818433), adagrasib (NSC831453), MRTX-1133 (NSC836407), BAY2416964 (NSC825713), copanlisib (NSC816437), inavolisib (NSC800729), abemaciclib (NSC768073), osimertinib (NSC779217), entinostat (NSC756642), eltanexor (KPT-8602, NSC794443), venetoclax (NSC766270), ceralasertib (NSC777638), bortezomib (NSC756655), olaparib (NSC753686), talazoparib (NSC767125), alisertib (NSC759677), peposertib (NSC802822), gemcitabine (NSC613327), 5-fluorouracil (NSC19893), SN-38 (NSC673596), oxaliplatin (NSC266046), paclitaxel (NSC125973), and doxorubicin (NSC123127), were obtained from the National Cancer Institute (NCI) Developmental Therapeutics Program Chemical Repository. The FDA-approved anticancer drug set is available from the Developmental Therapeutics Program at https://dtp.cancer.gov/organization/dscb/obtaining/available plates.htm. […] The stock solutions were prepared in dimethyl sulfoxide (DMSO, Sigma-Aldrich, St. Louis, MO, cat. D2650), except for the platinum complexes which were prepared in saline (Quality Biological, Gaithersburg, MD, cat. 114-055-101), at 800-fold the tested concentration and stored at -70 degrees C prior to their use. All drugs and investigational agents were tested over a range starting from a high concentration at or near the clinical Cmax and decreasing in half-log increments. If the clinical Cmax for an agent had not been determined, the highest concentration tested was 10 microM.
Cell Culture. All cells were maintained in an incubator at 37 degrees C and 5% CO2 with 95% humidity. The PDC lines were cultured according to standard operating procedures established by the NCI PDMR. Briefly, all PDCs were thawed and cultured in Matrigel-coated flasks prepared with a working solution of 1X Ham's F-12 nutrient mix, without supplementation (Invitrogen, Waltham, MA, cat. 11765054), 100 U/mL penicillin-streptomycin (Invitrogen, cat. 15140122), and 2.5% Matrigel (Corning Inc., Corning, NY, cat. 354248) for the first three passages. The 947758-054-R-J2-PDC line was cultured in 6B/Colon 1A media, which includes advanced DMEM/F-12 (Thermo Fisher Scientific, cat. 12634028), 10 mM HEPES (Thermo Fisher Scientific, cat. 15630080), 1X GlutaMAX supplement (Thermo Fisher Scientific, cat. 35050061), 0.1 mg/mL primocin (InvivoGen, cat. ant-pm-2), 10% defined fetal bovine serum, heat inactivated (HyClone Laboratories Inc., cat. SH30070.03HI), 1.25 mM N-Acetyl-L-cysteine (Sigma-Aldrich, cat. A9165), 10 mM nicotinamide (Sigma-Aldrich, cat. N0636), 1X B-27 supplement (Thermo Fisher Scientific, cat. 17504044), 1X N-2 supplement (Thermo Fisher Scientific, cat. 17502048), and 10 microM Y-27632 dihydrochloride (Tocris Bioscience, cat. 1254). The 876862-298-R-J1-PDC was cultured in 6E media, which includes all 6B/Colon 1A media components plus 50% L-WRN conditioned media (ATCC, cat. CRL-3276), 50 ng/mL recombinant human EGF recombinant protein (hEGF; Thermo Fisher Scientific, cat. PHG0311), 10 ng/mL recombinant human fibroblast growth factor 10 (hGFG-10; PeproTech, cat. 100-26), 1 ng/mL recombinant human fibroblast growth factor 2 (hFGF-2; PeproTech, cat. 100-18B), and 1 µM prostaglandin E2 (PGE2; Tocris, cat. 2296). The 227483-062-R1-J1-PDC line was cultured in Panc media, containing all 6E components except hFGF-2, with the addition of 500 nM SB-431542 (Selleckchem, cat. S1067) and 10 nM gastrin (Tocris, cat. 3006). […]

[1] = second compound 0.0316 µM, first compound 0.0316 µM
[2] = second compound 0.0316 µM, first compound 0.1 µM
[3] = second compound 0.0316 µM, first compound 0.316 µM
[4] = second compound 0.0316 µM, first compound 1 µM
[5] = second compound 0.1 µM, first compound 0.0316 µM
[6] = second compound 0.1 µM, first compound 0.1 µM
[7] = second compound 0.1 µM, first compound 0.316 µM
[8] = second compound 0.1 µM, first compound 1 µM
[9] = second compound 0.316 µM, first compound 0.0316 µM
[10] = second compound 0.316 µM, first compound 0.1 µM
[11] = second compound 0.316 µM, first compound 0.316 µM
[12] = second compound 0.316 µM, first compound 1 µM
[13] = second compound 1 µM, first compound 0.0316 µM
[14] = second compound 1 µM, first compound 0.1 µM
[15] = second compound 1 µM, first compound 0.316 µM
[16] = second compound 1 µM, first compound 1 µM
[17] = second compound 3.16 µM, first compound 0.0316 µM
[18] = second compound 3.16 µM, first compound 0.1 µM
[19] = second compound 3.16 µM, first compound 0.316 µM
[20] = second compound 3.16 µM, first compound 1 µM
[21] = second compound 10 µM, first compound 0.0316 µM
[22] = second compound 10 µM, first compound 0.1 µM
[23] = second compound 10 µM, first compound 0.316 µM
[24] = second compound 10 µM, first compound 1 µM
[25] = second compound 0.0316 µM, first compound 0.00316 µM
[26] = second compound 0.0316 µM, first compound 0.01 µM
[27] = second compound 0.1 µM, first compound 0.00316 µM
[28] = second compound 0.1 µM, first compound 0.01 µM
[29] = second compound 0.316 µM, first compound 0.00316 µM
[30] = second compound 0.316 µM, first compound 0.01 µM
[31] = second compound 1 µM, first compound 0.00316 µM
[32] = second compound 1 µM, first compound 0.01 µM
[33] = second compound 3.16 µM, first compound 0.00316 µM
[34] = second compound 3.16 µM, first compound 0.01 µM
[35] = second compound 10 µM, first compound 0.00316 µM
[36] = second compound 10 µM, first compound 0.01 µM
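Note: spheroids exposed to agents for seven days before readout.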
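Throughout, for viability, T/C: percent of DMSO vehicle control wells so 100% = untreated growth.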

SMILES: CC(Nc1ccc2c(c1)OCCn1cc(N3C(=O)OCC3C(F)F)nc1-2)C(N)=O (stereo unspecified) + CN1CCN(c2cc(C(=O)Nc3cc4cc(-c5cnn(C)c5)ccc4cn3)ccn2)CC1
- IC50 (second compound 0.0316 µM): 7280 nM
- IC50 (second compound 0.1 µM): 327 nM
- IC50 (second compound 0.316 µM): < 31.6 nM
- IC50 (second compound 1 µM): < 31.6 nM
- IC50 (second compound 3.16 µM): < 31.6 nM
- IC50 (second compound 10 µM): < 31.6 nM
- viability, T/C [1]: 91.5%
- viability, T/C [2]: 78.7%
- viability, T/C [3]: 79%
- viability, T/C [4]: 65.6%
- viability, T/C (second compound 0.0316 µM, first compound 3.16 µM): 55.3%
- viability, T/C (second compound 0.0316 µM, first compound 10 µM): 48%
- viability, T/C [5]: 67.6%
- viability, T/C [6]: 58.3%
- viability, T/C [7]: 50%
- viability, T/C [8]: 45.1%
- viability, T/C (second compound 0.1 µM, first compound 3.16 µM): 37.5%
- viability, T/C (second compound 0.1 µM, first compound 10 µM): 36.7%
- viability, T/C [9]: 27.5%
- viability, T/C [10]: 23.4%
- viability, T/C [11]: 18%
- viability, T/C [12]: 19.1%
- viability, T/C (second compound 0.316 µM, first compound 3.16 µM): 19.2%
- viability, T/C (second compound 0.316 µM, first compound 10 µM): 14.3%
- viability, T/C [13]: 3.27%
- viability, T/C [14]: 4.12%
- viability, T/C [15]: 3.78%
- viability, T/C [16]: 2.98%
- viability, T/C (second compound 1 µM, first compound 3.16 µM): 2.66%
- viability, T/C (second compound 1 µM, first compound 10 µM): 2.88%
- viability, T/C [17]: 3.35%
- viability, T/C [18]: 3.08%
- viability, T/C [19]: 2.69%
- viability, T/C [20]: 2.63%
- viability, T/C (second compound 3.16 µM, first compound 3.16 µM): 2.26%
- viability, T/C (second compound 3.16 µM, first compound 10 µM): 2.14%
- viability, T/C [21]: 2.98%
- viability, T/C [22]: 3.37%
- viability, T/C [23]: 3.23%
- viability, T/C [24]: 2.97%
- viability, T/C (second compound 10 µM, first compound 3.16 µM): 3.87%
- viability, T/C (second compound 10 µM, first compound 10 µM): 2.96%

SMILES: CCN1CCN(Cc2ccc(Nc3ncc(F)c(-c4cc(F)c5nc(C)n(C(C)C)c5c4)n3)nc2)CC1 + CN1CCN(c2cc(C(=O)Nc3cc4cc(-c5cnn(C)c5)ccc4cn3)ccn2)CC1
- IC50 (second compound 0.0316 µM): > 1000 nM
- IC50 (second compound 0.1 µM): > 1000 nM
- IC50 (second compound 0.316 µM): < 3.16 nM
- IC50 (second compound 1 µM): < 3.16 nM
- IC50 (second compound 3.16 µM): < 3.16 nM
- IC50 (second compound 10 µM): < 3.16 nM
- viability, T/C [25]: 93.6%
- viability, T/C [26]: 96.1%
- viability, T/C [1]: 78.2%
- viability, T/C [2]: 73.1%
- viability, T/C [3]: 65.2%
- viability, T/C [4]: 76.1%
- viability, T/C [27]: 68.6%
- viability, T/C [28]: 67.8%
- viability, T/C [5]: 62.6%
- viability, T/C [6]: 60.2%
- viability, T/C [7]: 59.7%
- viability, T/C [8]: 58.9%
- viability, T/C [29]: 23.3%
- viability, T/C [30]: 24.5%
- viability, T/C [9]: 25.5%
- viability, T/C [10]: 27.9%
- viability, T/C [11]: 29.6%
- viability, T/C [12]: 39.9%
- viability, T/C [31]: 3.56%
- viability, T/C [32]: 3.73%
- viability, T/C [13]: 3.71%
- viability, T/C [14]: 3.79%
- viability, T/C [15]: 7.89%
- viability, T/C [16]: 9.9%
- viability, T/C [33]: 3.02%
- viability, T/C [34]: 5.31%
- viability, T/C [17]: 3.88%
- viability, T/C [18]: 3.9%
- viability, T/C [19]: 4.69%
- viability, T/C [20]: 6.79%
- viability, T/C [35]: 3.83%
- viability, T/C [36]: 4.01%
- viability, T/C [21]: 4.24%
- viability, T/C [22]: 3.37%
- viability, T/C [23]: 4.88%
- viability, T/C [24]: 5.11%

SMILES: COc1c(OCCCN2CCOCC2)ccc2c3n(c(=NC(=O)c4cnc(N)nc4)nc12)CCN3 + CN1CCN(c2cc(C(=O)Nc3cc4cc(-c5cnn(C)c5)ccc4cn3)ccn2)CC1
- IC50 (second compound 0.0316 µM): 40.1 nM
- IC50 (second compound 0.1 µM): 18.7 nM
- IC50 (second compound 0.316 µM): < 3.16 nM
- IC50 (second compound 1 µM): < 3.16 nM
- IC50 (second compound 3.16 µM): < 3.16 nM
- IC50 (second compound 10 µM): < 3.16 nM
- viability, T/C [25]: 85.5%
- viability, T/C [26]: 77.1%
- viability, T/C [1]: 50%
- viability, T/C [2]: 39.6%
- viability, T/C [3]: 28.8%
- viability, T/C [4]: 25.9%
- viability, T/C [27]: 64.5%
- viability, T/C [28]: 63%
- viability, T/C [5]: 39.3%
- viability, T/C [6]: 26%
- viability, T/C [7]: 21.4%
- viability, T/C [8]: 19.3%
- viability, T/C [29]: 23.6%
- viability, T/C [30]: 21.5%
- viability, T/C [9]: 15.9%
- viability, T/C [10]: 15.7%
- viability, T/C [11]: 12.2%
- viability, T/C [12]: 11.9%
- viability, T/C [31]: 3.49%
- viability, T/C [32]: 2.87%
- viability, T/C [13]: 2.38%
- viability, T/C [14]: 2.22%
- viability, T/C [15]: 1.51%
- viability, T/C [16]: 0.92%
- viability, T/C [33]: 3.25%
- viability, T/C [34]: 4.48%
- viability, T/C [17]: 3.03%
- viability, T/C [18]: 1.39%
- viability, T/C [19]: 1.26%
- viability, T/C [20]: 0.84%
- viability, T/C [35]: 4.13%
- viability, T/C [36]: 3.87%
- viability, T/C [21]: 3.7%
- viability, T/C [22]: 2.13%
- viability, T/C [23]: 1.69%
- viability, T/C [24]: 2.03%
